# Where a name gives a salt, the structure may show the parent alone.
# Target: T1, DNA helicase [35-727] (Plasmodium falciparum, UniProt Q8I3W6)
# T1 construct: 35-727
# T1 sequence (Q8I3W6 whole entry): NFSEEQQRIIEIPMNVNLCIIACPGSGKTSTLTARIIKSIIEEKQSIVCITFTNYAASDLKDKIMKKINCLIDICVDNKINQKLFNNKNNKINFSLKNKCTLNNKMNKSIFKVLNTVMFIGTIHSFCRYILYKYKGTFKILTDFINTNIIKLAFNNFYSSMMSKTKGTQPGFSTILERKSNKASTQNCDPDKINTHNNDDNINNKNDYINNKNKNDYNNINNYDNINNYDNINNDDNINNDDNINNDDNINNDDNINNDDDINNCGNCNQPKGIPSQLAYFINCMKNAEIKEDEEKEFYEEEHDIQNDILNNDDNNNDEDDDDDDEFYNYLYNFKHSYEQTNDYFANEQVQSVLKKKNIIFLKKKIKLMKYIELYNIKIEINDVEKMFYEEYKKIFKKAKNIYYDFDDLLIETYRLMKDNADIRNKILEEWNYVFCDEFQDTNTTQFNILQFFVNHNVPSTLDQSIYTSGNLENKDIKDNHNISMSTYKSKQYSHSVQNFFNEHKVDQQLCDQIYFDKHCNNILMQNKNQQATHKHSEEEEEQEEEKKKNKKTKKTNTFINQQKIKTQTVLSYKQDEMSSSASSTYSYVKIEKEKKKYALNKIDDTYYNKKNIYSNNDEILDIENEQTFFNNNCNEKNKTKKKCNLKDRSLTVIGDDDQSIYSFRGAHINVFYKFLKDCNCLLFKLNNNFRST
# Assay: DNA-Dependent ATPase Assay
# Details: pH 8; 37 °C
# Procedure: The hydrolysis of ATP catalyzed by PfUDN was assayed by measuring the formation of Pi from [γ-32P] ATP. The reaction mixture of 10 μl contained [γ-32P] ATP (specific activity 222 TBq. mmol^−1) and cold ATP (1 mM), ATPase buffer (20 mM Tris-HCl, pH 8.0, 8 mM DTT, 1.0 mM MgCl2, 20 mM KCl and 16 μg/ml BSA), purified PfUDN and 50 ng or 100 ng of M13 mp19 ssDNA. The reaction mixtures were incubated at 37°C for 60 min.
smiles,measurement,value
"COc1cccc2c1C(=O)c1c(O)c3c(c(O)c1C2=O)C[C@@](O)(C(C)=O)C[C@@H]3O[C@H]1C[C@H](N)[C@H](O)[C@H](C)O1 [(7S,9S)-9-acetyl-7-[(2R,4S,5S,6S)-4-amino-5-hydroxy-6-methyloxan-2-yl]oxy-6,9,11-trihydroxy-4-methoxy-8,10-dihydro-7H-tetracene-5,12-dione;hydrochloride]",IC50,4.4 µM
CC[n+]1c(-c2ccccc2)c2cc(N)ccc2c2ccc(N)cc21 [AB00053825_07],IC50,3.1 µM
